# Results published in patent US20230271956A1, “AMIDE DERIVATIVES” (Merck Patent GmbH, priority 2020, published 2023).
# Legend:
# human rec ACSS2 = molecular target: T1, human rec ACSS2 (Homo sapiens, UniProt Q9NR19); test: Biochemical activity ACSS2 assay (AMP-Glo); details: human recombinant ACSS2, AMP-Glo, 180 min at 37° C.
# T1 construct: myc (C); purchased Origene
# Outline: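 C-terminal myc-tagged human recombinant ACSS2 (1 nM) reacted with 100 µM ATP, 100 µM CoA and 500 µM acetate (final) in pH 7.5 Hepes buffer for 180 min at 37° C, compound in 10 concentrations from 30 µM. Released AMP detected by AMP-Glo luminescence. IC50 normalised to inhibitor-free reaction and 5 µM reference inhibitor.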
# ACSS2 [1] = molecular target: T2, ACSS2 (Homo sapiens, UniProt Q9NR19); test: Cellular assay of 14C acetate incorporation into histones (IC50 ACSS2 cellular histone); type: cell-based; details: HCT-15 cells
# T2 construct: endogenous fatty acid synthesis activity in the human HCT-15 cancer cell line; endogenous in cells; host or cells: HCT-15
# T2 sequence (Q9NR19 whole entry): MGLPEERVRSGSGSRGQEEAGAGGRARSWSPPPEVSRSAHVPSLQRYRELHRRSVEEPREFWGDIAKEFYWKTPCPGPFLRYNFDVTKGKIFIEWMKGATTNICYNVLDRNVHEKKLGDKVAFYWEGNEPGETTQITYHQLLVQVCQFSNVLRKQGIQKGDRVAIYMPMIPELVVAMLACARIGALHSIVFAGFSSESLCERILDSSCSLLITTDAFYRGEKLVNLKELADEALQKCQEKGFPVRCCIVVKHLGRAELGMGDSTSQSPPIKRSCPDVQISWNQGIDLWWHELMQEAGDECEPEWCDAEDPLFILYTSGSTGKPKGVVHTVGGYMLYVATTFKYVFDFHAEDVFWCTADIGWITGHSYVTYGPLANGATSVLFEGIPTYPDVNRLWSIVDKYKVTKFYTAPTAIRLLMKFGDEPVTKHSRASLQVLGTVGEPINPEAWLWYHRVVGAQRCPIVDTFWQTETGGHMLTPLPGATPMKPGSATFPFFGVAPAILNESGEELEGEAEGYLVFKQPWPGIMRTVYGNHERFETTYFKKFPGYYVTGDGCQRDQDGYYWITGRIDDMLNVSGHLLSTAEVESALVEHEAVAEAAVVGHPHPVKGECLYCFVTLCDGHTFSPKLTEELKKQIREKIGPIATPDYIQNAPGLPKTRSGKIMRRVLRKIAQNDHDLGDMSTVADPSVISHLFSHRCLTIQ
# Outline: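 Human HCT-15 cells preincubated 1 h with compound (0.25% DMSO final), then pulsed 3 h with 14C-acetate. Histones were acid-extracted (0.2 M HCl, overnight, 4° C) after Triton lysis in sodium-butyrate buffer; incorporated 14C counted by liquid scintillation (CPM) to give IC50.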
# CHO-K1 cells = test: Micronucleus assay (MNT) in vitro; type: cell-based; parameters: key: A: negative, putative negative (micronuclei detected beyond threshold of 60% cyctotoxicity); B: positive; details: 24 hrs treatment, 0.2 µM to 100 µM
# Protocol: The in vitro MNT assay is performed in CHO-K1 cells due to their stable and welI-characterized karyotype, high sensitivity and suitability for a high content imaging approach. They have a basal spontaneous micronucleus frequency of 3-4%.
# 24 hrs after plating CHO-K1 cells are treated with test compounds for 24 hrs (in duplicates; fixed concentration ranges from 0.2 µM to 100 µM in 2-fold dilution steps). After a medium change cells are incubated for 24 hrs with Cytochalasin B to block cytokinesis and are then fixed and nuclei / micronuclei visualized with a DNA stain. Images are acquired with the Molecular Devices high content imagers IXU or IXM and are analyzed with the dedicated MetaXpress software micronucleus module. Criteria for scoring of micronuclei (MN) are the following: • diameter of the MN should be less than ⅓ of the main nucleus • MN should be separated from or marginally overlap with main nucleus (= no blebs) • MN should have similar staining as the main nucleus At least 1000 binucleated cells are evaluated per treatment replicate. Mitomycin C is used as reference stimulator of micronucleus formation. Cytotoxicity is evaluated in parallel and defined by comparing total nuclei count in compound-treated samples to neutral control samples treated with vehicle only (1% DMSO) (100% cytotoxicity means all cells are dead or lost).
# A test compound is regarded as POSITIVE if generation of micronuclei and exhibition of less than 60% cytotoxicity at the same concentration can be observed.
# Compounds are scored only in the soluble concentration range. Experimental data of the compounds shown in Table 1 in the MNT assay are shown in Table 2 below and classified in the following groups: […]
# ACSS2 [2] = molecular target: T2, ACSS2; test: Cellular assay of 14C acetate incorporation into fatty acids (IC50 ACSS2 cellular lipids); type: cell-based; details: HCT-15 cells
# Protocol: This protocol describes a cellular assay capable to quantify endogenous fatty acid synthesis activity in the human HCT-15 cancer cell line following the incorporation of extracellularly administered radiolabeled ^14C acetate with a scintillation proximity based read out on extracted fatty acids.
# HCT-15 cells were grown in RPMI 1640 (Gibco) supplemented with 2 mM glutamine, 1 mM sodium pyruvate 10 mM HEPES and 10 % FCS (heat-inactivated) passaged every 2-3 days to remain a subconfluent, vital culture. A working cell bank was prepared with each aliquot containing 1x10^7 viable cells. After thawing, these cells are dilute immediately 1:20 in pre-warmed (37° C.) culture medium. Cells are collected by centrifugation at 200 x g for 5 min, and the supernatant is replaced by 30 mL of fresh culture medium per aliquot to obtain a cell suspension containing 350000 cells/ml. From this cell suspension 100 µL are dispersed into each well of a collagen coated 96 well plate, (black, clear bottom, PS, F-bottom, Greiner) and culture for 24 h (37° C., 5% CO2). After incubation the culture medium is removed and the wells are washed once with 100 µL PBS++ (supplemented with Mg^2+/ Ca^2+, Gibco) and 50 µL assay medium (RPMI 1640 + 10 mM HEPES) are added to each well. Compounds serial dilutions are prepared from 10 mM stock solutions in DMSO using a fixed dilution factor (usually 1:3). After preparation of the dilution series in DMSO, the individual dilutions are further diluted in the assay medium. This working dilution is prepared such, that the concentration is 7x of the final concentration in the assay. The maximal DMSO concentration in the final assay is 0.1%.
# To each well 10 µL compound working dilution or DMSO blank are added and the cells are cultured for 2 h (37° C., 5% CO2). Then 10 µL AlamarBlue reagent (Invitrogen) containing 14 µCi/mL ^14C-acetate (Perkin Elmer) are added to each well (70 µl total volume) and cells are again cultured for 2 h. Cell viability is verified by measuring the AlamarBlue fluorescence (Tecan Safire, ex: 544 nm / em: 590 nm). After incubation the culture medium is removed and the wells are carefully washed once with cold 100 µL PBS++. For cell lysis and fatty acid recovery 50 µl 0.1 M NaOH and 0.1 % Triton-X100 are added per well. The plate is sealed with PlateLoc (clear peelable heat seal, Agilent) and incubate at 70° C. for 16-24 h. After cooling to room temperature, the plates are centrifuged for 1 min at 1000 rpm and the plate seals are removed. For acidification 150 µL 0.1 M HCl are added to each well, mixed and 150 µL of the mixture are transferred into a 96 well FlashPlate (Perkin Elmer). The plates are sealed with TopSeaI-a (Perkin Elmer). To allow for the fatty acid binding to the well surfaces the plates are incubate for 4 h at 70° C. After cooling to room temperature, the plates are centrifuged for 1 min at 1000 rpm and stored for 0.5-2 h at room temperature in the dark. Radioactivity from ^14C incorporation into fatty acids in the wells is measured as CPM count in a MicroBeta scintillation counter (Perkin Elmer).
# T1 sequence (Q9NR19 whole entry): as above
IC50 (ACSS2 [2]) [nM],Structure (SMILES),IC50 (human rec ACSS2) [nM],IC50 (ACSS2 [1]) [nM],MNT (CHO-K1 cells)
,"CCc1c(C(O)(c2ccccc2)c2ccccn2)nc2cc(OC)c(C(=O)Nc3ncn(CC)n3)cn12 (single isomer, unassigned) [Compound 18, 3-ethyl-N-(1-ethyl-1,2,4-triazol-3-yl)-2-[hydroxy-phenyl-(2-pyridyl)methyl]-7-methoxy-imidazo[1,2-a]pyridine-6-carboxamide]",100 to 10000,100 to 10000,A
,"CCc1c(C(O)(c2ccccc2)c2ccn(C)n2)nc2cc(OC)c(C(=O)Nc3ncn(CC)n3)cn12 (single isomer, unassigned) [Compound 21, 3-Ethyl-2-[hydroxy-(1-methyl-1H-pyrazol-3-yl)-phenyl-methyl]-7-methoxy-imidazo[1,2-a]pyridine-6-carboxylic acid (1-ethyl-1H-[1,2,4]triazol-3-yl)-amide]",100 to 10000,,A
,"CCc1c(C(O)(c2ccccc2)c2ccn(C)n2)nc2cc(OC)c(C(=O)Nc3ncn(CC)n3)cn12 (single isomer, unassigned) [Compound 22, 3-Ethyl-2-[hydroxy-(1-methyl-1H-pyrazol-3-yl)-phenyl-methyl]-7-methoxy-imidazo[1,2-a]pyridine-6-carboxylic acid (1-ethyl-1H-[1,2,4]triazol-3-yl)-amide]",10 to 100,10 to 100,A
,"CCc1c(C(O)(c2ccccc2F)c2ccccc2F)nn2cc(OC)c(C(=O)Nc3ncn(CC)n3)cc12 [Compound 7, 2-[Bis-(2-fluoro-phenyl)-hydroxy-methyl]-3-ethyl-6-methoxy-pyrazolo[1,5-a]pyridine-5-carboxylic acid (1-ethyl-1H-[1,2,4]triazol-3-yl)-amide]",1 to 10,1 to 10,A
,"CCc1c(C(O)(c2ccccc2)c2ccccc2)nc2cc(F)c(C(=O)Nc3cnn(CC)c3)cn12 [Compound 15, 3-Ethyl-7-fluoro-2-(hydroxy-diphenylmethyl)-imidazo[1,2-a]pyridine-6-carboxylic acid (1-ethyl-1H-pyrazol-4-yl)-amide]",10 to 100,10 to 100,A
,"CCc1c(C(O)(c2ccccc2F)c2ccccc2F)nc2cc(Cl)c(C(=O)Nc3cnn(CC)c3)cn12 [Compound 29, 2-[Bis-(2-fluoro-phenyl)-hydroxy-methyl]-7-chloro-3-ethyl-imidazo[1,2-a]pyridine-6-carboxylic acid (1-ethyl-1H-pyrazol-4-yl)-amide]",10 to 100,10 to 100,A
1 to 10,"CCn1cc(NC(=O)c2cc3c(nc2F)nc(C(O)(c2ccccc2)c2ccccc2)n3CC)cn1 [Compound 92, 1-ethyl-N-(1-ethyl-1H-pyrazol-4-yl)-5-fluoro-2-(hydroxydiphenylmethyl)-1H-imidazo[4,5-b]pyridine-6-carboxamide]",10 to 100,1 to 10,
1 to 10,"CCn1cc(NC(=O)c2cc3c(nc2OC)nc(C(O)(c2ccccc2F)c2ccccc2F)n3CC)cn1 [Compound 104, 2-[bis(2-fluorophenyl)(hydroxy)methyl]-1-ethyl-N-(1-ethyl-1H-pyrazol-4-yl)-5-methoxy-1H-imidazo[4,5-b]pyridine-6-carboxamide]",1 to 10,1 to 10,
10 to 100,"CCn1cc(NC(=O)c2cc3c(nc2C)nc(C(O)(c2ccccc2F)c2ccccc2F)n3CC)cn1 [Compound 107, 2-[bis(2-fluorophenyl)(hydroxy)methyl]-1-ethyl-N-(1-ethyl-1H-pyrazol-4-yl)-5-methyl-1H-imidazo[4,5-b]pyridine-6-carboxamide]",1 to 10,0.01 to 1,
10 to 100,"CCn1cnc(NC(=O)c2cc3c(nc2C)nc(C(O)(c2ccccc2)c2ccccc2)n3CC)n1 [Compound 108, 1-ethyl-N-(1-ethyl-1H-1,2,4-triazol-3-yl)-2-(hydroxydiphenylmethyl)-5-methyl-1H-imidazo[4,5-b]pyridine-6-carboxamide]",1 to 10,1 to 10,
100 to 10000,"CCn1cnc(NC(=O)c2cnc3nc(C(O)(c4ccccc4)c4ccccc4)n(CC)c3c2)n1 [Compound 111, 1-ethyl-N-(1-ethyl-1H-1,2,4-triazol-3-yl)-2-(hydroxydiphenylmethyl)-1H-imidazo[4,5-b]pyridine-6-carboxamide]",1 to 10,100 to 10000,
